Consider three molecules from patent US6585953B2, “Synthesis of 17F labeled fluoroalkanes” (Wisconsin Alumni Research Foundation, priority 2000, dated 2003).

The conditions of data set [1]: cited from earlier work.
A short description of data set [2]: Clearance and distribution of inhaled tracer in test subjects. In kind it is in vivo. An excerpt:
Positron emitting ^17F (Eβ^+(max)=1.74 MeV; t½≈64 seconds) has an ideal half life for probing such diverse processes as gray matter cerebral activity or gas-phase reactions on an industrial scale. Because of the very short half life of ^17F, tracers labeled with this isotope such as ^17F labeled fluoromethane provide very short half life cerebral blood flow agents that have important application in PET studies of seizure and other transient brain phenomena. The shorter half life of ^17F with respect to ^15O permits repeat images to be obtained twice as fast with ^17F labeled tracers as compared to ^15O labeled tracers such as water which is presently in wide use as a tracer as described above. The ability to scan twice as fast using ^17F labeled tracers allows more data to be collected in the same amount of time and should allow more test subjects to be evaluated using instruments that are currently in high demand. Additionally, ^17F labeled tracers show improved signal to noise level ratios over ^15O labeled tracers providing increased sensitivity. ^15O tracers such as ^15O labeled water are usually administered in a manner that is more invasive than are tracers such as ^17F labeled fluoromethane. For example, ^15O labeled tracers are usually administered by injection and arterial measurements are then made from an arterial cannulation. On the other hand, ^17F labeled tracers such as fluoromethane may be administered by having a test subject inhale the tracer, and arterial measurements can be made from exhalations.
FIG. 5 is a gas chromatograph (Porpak Q column; He carrier gas; thermal conductivity detector, electrochemical detector, and positron coincidence radiation detector) showing the radiochemical purity of ^17F labeled fluoromethane produced by the present invention. The radiochemical purity of the ^17F labeled fluoromethane was determined to be 91 percent with only ^17F labeled CF4 from the target as a radiochemical impurity. […] Thus, the presence of CF4 only impacts the dosimetry to the lungs and trachea.

On to `[15OH2]` [^15O labeled water], for which the permeability surface product result in data set [1] (at high flows the signal is reduced) is “relatively low”. Further, in data set [1] (usually administered by injection), the “clearance from test subjects” value is given as “slow to clear”.

Turning to `C[17F]` [^17F labeled fluoromethane], in data set [2] (by exhalation), the clearance result was “rapidly cleared by exhalation”. The biological half life entry in data set [2] (in vivo) is listed as “quite short”.

Consider `FC(F)(F)F` [CF4], for which the “distribution into blood when inhaled” value in data set [2] (inhaled as tracer impurity, only impacts dosimetry to lungs and trachea) is recorded as “stays out of the blood”.
